Legend:
plasmid pTG11236 = assay: Electrophoretic analysis of nanoparticles of DNA (agarose gel, ethidium bromide); assay type: binding; details: for accessibility of the DNA at the intercalation by ethidium bromide: N/P ratio=5, plasmid pTG11236
Protocol: The plasmid pTG11236 (pCMV-SV40-luciferase-SV40 pA), used in the preparation of DNA complexes and for transfection tests is a plasmid with 5739 pairs of bases. The quantities of compounds used are calculated to obtain a DNA concentration of 0.1 mg·mL^−1 (303 μM in phosphate equivalent) and the desired Nitrogen/Phosphate (N/P) ratios. Tests for values of N/P=5, 10, 30 and 50 were carried out both for compound no. 8 and for compound no. 16. As a reference transfection formulation (positive control), we used polyplexes formulated with the same plasmid and the polycationic polymer polyethyleneimine (branched PEI, 25 kDa), and naked DNA as a negative control.
For the preparation of the complexes, the DNA is diluted in HEPES (20 mM, pH 7.4) until a final concentration of 303 μM in phosphate equivalent, then the quantity of compound no. 8 or no. 16 necessary, obtained from a stock solution of 20 mg·mL^−1 in DMSO-water 1:2 (v/v) is added in order to obtain the desired N/P ratio. For the PEI, a 0.1M stock solution in water is used. The mixtures are vortexed for 10 sec and used in the characterisation and for the transfection tests, as described below.
10 μl of each formulation of complexes prepared as mentioned above are diluted once in the loaded buffer (glycerol+bromophenol blue+Tris-acetate-EDTA or TAE). 1 μl of this solution are deposited on a gel with 8% agarose. The rest of the sample is diluted once with a decomplexing solution with 8% sodium dodecyl sulfate (SDS) in TAE, then 10 μl are also deposited on a gel. The electrophoresis is carried out for […] at 50V. The gel is then developed with ethidium bromide (Sigma) in TAE ([…] of a solution of ethidium bromide with a concentration of 10 mg·mL^−1 in 200 mL of TAE). The DNA is also visualised and photographed with an UV transilluminator. FIGS. 2 and 3 are photos of electrophoretic analyses, carried out on agarose gel in the presence of ethidium bromide, of DNA complexes/nanoparticles obtained with compound no. 8 according to an N/P ratio of 5, 10, 30 and 50 respectively.

BNL-CL2 cells [1] = assay: In vitro transfection of nanoparticles of DNA, luciferase assay; assay type: cell-based, Murine; details: 0.5 μg of DNA per well (FIG. 6: N/P=10)
Protocol: (§1) Murine embryo cells BNL-CL2 are grown in 96-well plates until a density of 2×10^4 cells/well in a DMEM culture medium (Dulbelcco's Modified Eagle Medium, Gibco-BRL) containing 10% foetal calf serum (SVF; Sigma) at 37° C. in a humid atmosphere with a proportion of 5% CO2/95% air.
(§2) The complexes between compound no. 8, no. 16 or polyethyleneimine (PEI), and plasmid pTG11236 are diluted in 100 μl of DMEM so as to obtain 0.5 μg of DNA in the well.
(§3) The culture medium is removed and replaced by 100 μl of solution of nanoparticle complex/DNA in DMEM. After 4 hrs and 24 hrs, 50 and 100 μL of DMEM containing 30% and 10% of FCS, respectively, are added. After 48 hrs, the transfection is stopped, the culture medium is removed and the cells are washed with PBS (2×100 μL), then lysed with 50 μL of lysis buffer (Promega, Charbonnières, France). The lysates are frozen at −32° C. until the luciferase and protein assay.
The luciferase assay is used to assess the efficacy of transfection. This assay is based on a chimioluminescence reaction whose principle is based on oxydation by luciferase of its substrate (luciferine) with concomitant production of a photon. The activity of the luciferase is measured with a Biolumat LB96P WMP100 apparatus (BERTHOLD) for 10 sec after the injection of 50 μl of reagent containing luciferine (Prmèga assay kit) in each well containing 10 μl of cell extract. […]

BNL-CL2 cells [2] = assay: Cell viability after transfection (BCA protein assay); assay type: cell-based, Murine; details: for cell viability compared with PEI/DNA polyplexes at the same N/P ratios: N/P ratios>10; for cell viability after transfection: complexes with pTG11236, N/P 5 to 50, 0.5 μg plasmid/well
Protocol: as §1, §2, §3
The protein assay is based on the BCA test (Pierce). The protein assay is carried out on 15 μl of cell lysate to which are added 300 μl of Pierce reagent (BCA Protein Assay Reagent). It consists of a colorimetric assay which is carried out with UV/visible MRX spectrophotometry (DYNEX Technologies). For each assay, a standard series is carried out with BSA (Bovine Serum Albumin, BIO-RAD), of 0 to 30 μg per well. The reading is taken at 570 nm, after 30 […] at ambient temperature. With this standard BSA series, the OD may be expressed in mg of protein/well.
The ratio of the quantities of proteins corresponding to the transfected and non transfected (100% cell viability) cells is used to assess the cell viability of the complexes (expressed in %).
All of the formulations are tested at least 3 times. The results obtained were processed using STATGRAPHICS Plus5.1 software (trade mark). Anova analysis of variance is carried out on the values of the efficacies of transfection (LoglO(fg luciferase/mg protein)) and on the cell viability. It is possible to analyse the impact (on the transfection or cell viability) of the variation of one or several factors by applying a mono- or multifactorial analysis of variance, respectively. The method used to compare the means is the HSD (honestly significant difference) intervals by Tukey.

[3] = Size and polydispersion of white homogenous nanospheres (quasi-elastic diffusion of light), physical stability over time; assay type: physicochemical
Protocol: The method used to prepare white homogenous nanospheres consists in introducing an organic phase of acetone (or tetrahydrofurane) and an amphiphilic cyclodextrin derivative from the invention (1 mg·mL^−1) in an aqueous phase of equivalent volume or a double volume (distilled water), under magnetic stirring (500 r.p.m.) at 25° C. After nanoprecipitation, the organic solvent is eliminated under reduced pressure at +35° C. The aqueous suspension presenting an opalescent to milky appearance (according to the products used) is then concentrated until the final volume desired is obtained, then filtered on a 0.8 μm filter (Millex AA, Millipore, France).
The colloid suspensions are then characterised as regards the granulometry (mean size and polydisperion) and, when they incorporate loaded amphiphilic cyclodextrins, by their zeta potential. The characterisation is carried out using the following methods:
The quasi-elastic diffusion of light is used. A Zetasizer 3000 apparatus equipped with a K7132 correlator (Malvern Instruments, RU) was used. The conditions for measurement are as follows: angle of detection 90°, temperature 25±0.1° C., apparent viscosity 0.89 mPa·s. Before measuring the size, samples are diluted in distilled water if necessary. The hydrodynamic diameter (mean Z) and polydispersion index (PI) of the nanoparticles in suspension are calculated in intensity by the cumulant method by carrying out 3 measurements on the same sample. The value of the hydrodynamic diameter is calculated using the measurement of the translational coefficient of diffusion of particles with Brownian movement. An NanoZS apparatus (Malvern Instruments) was also used to measure the size of the nanocapsules. In the same way, the samples are diluted before measurement, if necessary in water added to Montanox 80 (trade mark).
The studies on the physical stability of particles were carried out over periods ranging from 1 month to 8 months. The corresponding data for a series of amphiphilic cyclodextrins in the invention are indicated in Table 1 providing the granulometric characteristics (mean size and polydispersion index or mean PI), with evolution over time, of different homogenous nanospheres derived from the compounds indicated in the left column, the reference number for said compounds corresponding to those of the compounds described in the above examples.

Compound | Mean size ± standard deviation (n = 3) ([3]; initial) [nm] | PI (polydispersion index) ([3]; initial) | accessibility of the DNA at the intercalation by ethidium bromide (plasmid pTG11236) | cell viability compared with PEI/DNA polyplexes at the same N/P ratios (BNL-CL2 cells [2]) | cell viability after transfection (BNL-CL2 cells [2]) | IP (polydispersion index) ([3]; 3 months) | Mean size ± standard deviation (n = 3) ([3]; 3 months) [nm] | IP (polydispersion index) ([3]; 6 months) | Mean size ± standard deviation (n = 3) ([3]; 6 months) [nm] | further results
CCCCCC(=O)O[C@@H]1[C@@H](OC(=O)CCCCC)[C@H]2O[C@H]3[C@H](OC(=O)CCCCC)[C@@H](OC(=O)CCCCC)[C@@H](O[C@H]4[C@H](OC(=O)CCCCC)[C@@H](OC(=O)CCCCC)[C@@H](O[C@H]5[C@H](OC(=O)CCCCC)[C@@H](OC(=O)CCCCC)[C@@H](O[C@H]6[C@H](OC(=O)CCCCC)[C@@H](OC(=O)CCCCC)[C@@H](O[C@H]7[C@H](OC(=O)CCCCC)[C@@H](OC(=O)CCCCC)[C@@H](O[C@H]8[C@H](OC(=O)CCCCC)[C@@H](OC(=O)CCCCC)[C@@H](O[C@@H]1[C@@H](CSCCNC(=S)NCCN)O2)O[C@@H]8CSCCNC(=S)NCCN)O[C@@H]7CSCCNC(=S)NCCN)O[C@@H]6CSCCNC(=S)NCCN)O[C@@H]5CSCCNC(=S)NCCN)O[C@@H]4CSCCNC(=S)NCCN)O[C@@H]3CSCCNC(=S)NCCN.Cl.Cl.Cl.Cl.Cl.Cl.Cl [compound no. 16, heptakis[6-desoxy-6-(2-(N′-(2-aminoethyl)thioureido)ethylthio)-2,3-di-O-hexanoyl]cyclomaltoheptaose heptachlorhydrate] | – | – | no longer accessible | significantly higher | excellent | – | – | – | – | levels of transfection compared with N/P 10 polyplexes formulated with PEI (BNL-CL2 cells [1]): equal; levels of transfection, times higher than those with naked DNA (BNL-CL2 cells [1]): about 10,000 times
heptakis[6-(2-aminoethylthio)-6-desoxy-2,3-di-O-hexanoyl]cyclomaltoheptaose heptachlorhydrate [compound no. 8] | – | – | partially accessible | significantly higher | excellent | – | – | – | – | complexation of the DNA (absence of DNA bands) (plasmid pTG11236; N/P ratio≧10, plasmid pTG11236): total complexation
heptakis[6-(2-tert-butoxycarbonylaminoethylthio)-6-desoxy-2,3-di-O-myristoyl]cyclomaltoheptaose [compound no. 10] | 212 ± 14 | 0.11 | – | – | – | 0.07 | 207 ± 1 | 0.32 | 269 ± 64 | –
heptakis[6-desoxy-2,3-di-0-myristoyl-6-(2-isothiocyanatoethylthio)]cyclomaltoheptaose [compound no. 12] | 72 ± 32 | 0.31 | – | – | – | – | – | – | – | –

The next lines start with results.

Mean size ± standard deviation (n = 3) ([3]; initial) [nm] | PI (polydispersion index) ([3]; initial) | Compound | accessibility of the DNA at the intercalation by ethidium bromide (plasmid pTG11236) | cell viability compared with PEI/DNA polyplexes at the same N/P ratios (BNL-CL2 cells [2]) | cell viability after transfection (BNL-CL2 cells [2]) | IP (polydispersion index) ([3]; 3 months) | Mean size ± standard deviation (n = 3) ([3]; 3 months) [nm] | IP (polydispersion index) ([3]; 6 months) | Mean size ± standard deviation (n = 3) ([3]; 6 months) [nm] | further results
100 ± 20 | 0.06 | CCCCCC(=O)OC1C2OC(CO)C(OC3OC(CO)C(OC4OC(CO)C(OC5OC(CO)C(OC6OC(CSCCNC(=S)NCCSCC7OC8OC9C(CO)OC(OC%10C(CO)OC(OC%11C(CO)OC(OC%12C(CO)OC(OC%13C(CO)OC(OC%14C(CO)OC(OC7C(O)C8O)C(O)C%14O)C(O)C%13O)C(O)C%12O)C(O)C%11O)C(O)C%10O)C(O)C9O)C(OC7OC(CO)C(OC8OC(CO)C(O2)C(OC(=O)CCCCC)C8OC(=O)CCCCC)C(OC(=O)CCCCC)C7OC(=O)CCCCC)C(OC(=O)CCCCC)C6OC(=O)CCCCC)C(OC(=O)CCCCC)C5OC(=O)CCCCC)C(OC(=O)CCCCC)C4OC(=O)CCCCC)C(OC(=O)CCCCC)C3OC(=O)CCCCC)C1OC(=O)CCCCC (stereo not shown) [compound no. 26] | – | – | – | – | – | – | – | –
171 ± 9 | 0.03 | heptakis(6-azido-6-desoxy-2,3-di-0-myristoyl)cyclomaltoheptaose [compound no. 6] | – | – | – | 0.06 | 157 ± 8 | 0.04 | 198 ± 12 | –
